Measured values from PubChem BioAssay (NCI).
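Briefly, cells in 96-well plates were exposed to five compound concentrations for 48 h, and endpoints were estimated by linear interpolation. TGI: total growth inhibition.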

Tests used:
Experiment in all cases: inhibition of tumour cell growth, NCI panel, 48 h
[1] = system: SK-MEL-2 melanoma
[2] = system: SK-MEL-28 melanoma
[3] = system: NCI-H460 lung
[4] = system: 786-0 renal
[5] = system: PC-3 prostate
[6] = system: DU-145 prostate
[7] = system: K-562 leukemia
[8] = system: OVCAR-4 ovarian
[9] = system: RPMI-8226 leukemia
[10] = system: A549 NSCLC
[11] = system: SF-539 CNS
[12] = system: OVCAR-5 ovarian

Compound | TGI [1] [µM] | TGI [2] [µM] | TGI [3] [µM] | TGI [4] [µM] | TGI [5] [µM] | TGI [6] [µM] | TGI [7] [µM] | TGI [8] [µM] | TGI [9] [µM] | TGI [10] [µM] | TGI [11] [µM] | TGI [12] [µM]
COc1ccc(/C=C2\C[C@H]3[C@@H]4CCC5=C[C@@H](N6CCCC6)CC[C@]5(C)[C@H]4CC[C@]3(C)[C@H]2O)cc1 | 3.6 | 3.66 | 8.04 | 2.94 | 8.17 | 20.8 | 11.8 | 13.9 | > 29.2 | 7.59 | 5.71 | 20.9
CC1(C)C(=O)C(C)(C)C12SSC1(S2)C(C)(C)C(=O)C1(C)C | > 100 | > 100 | > 100 | > 100 | > 100 | > 100 | > 100 | > 100 | > 100 | > 100 | > 100 | > 100
C[C@]12CC[C@@H]3c4cc(OCC(F)(F)F)c(O)cc4C(=O)C[C@H]3[C@@H]1CC[C@@H]2O | > 26.1 | > 52.3 | > 100 | > 100 | > 67.7 | > 100 | > 100 | > 100 | > 100 | > 100 | 22.6 | > 85.3
